Experiments:
Details in all cases: read-out: pI50 (converted)
[1] = target: T1, Protoporphyrinogen IX oxidase (Zea mays, UniProt Q9FYV8); test: Inhibition of protoporphyrinogen IX oxidase in Zea mays cv. Anjou (maize) seedlings homogenates assessed as protoporphyrinogen IX formation by spectrophotometry
T1 sequence (Q9FYV8 whole entry): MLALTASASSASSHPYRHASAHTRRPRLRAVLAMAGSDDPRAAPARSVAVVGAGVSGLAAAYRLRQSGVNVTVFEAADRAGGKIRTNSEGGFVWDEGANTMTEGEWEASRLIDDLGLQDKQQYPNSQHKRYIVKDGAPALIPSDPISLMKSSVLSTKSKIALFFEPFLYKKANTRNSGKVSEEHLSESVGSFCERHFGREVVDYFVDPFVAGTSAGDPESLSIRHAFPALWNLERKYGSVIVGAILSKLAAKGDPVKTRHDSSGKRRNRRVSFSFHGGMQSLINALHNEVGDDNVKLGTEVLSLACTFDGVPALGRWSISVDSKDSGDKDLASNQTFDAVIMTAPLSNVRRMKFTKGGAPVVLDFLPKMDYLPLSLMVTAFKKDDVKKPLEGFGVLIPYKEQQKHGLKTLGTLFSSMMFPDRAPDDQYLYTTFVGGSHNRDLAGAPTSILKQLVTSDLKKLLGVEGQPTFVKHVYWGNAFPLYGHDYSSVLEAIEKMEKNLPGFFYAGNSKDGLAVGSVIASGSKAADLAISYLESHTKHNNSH

Scenedesmus acutus [2] = test: Phytotoxicity against Scenedesmus acutus assessed as reduction in chlorophyll content by spectroscopy; format: functional, organism-based
Scenedesmus acutus [3] = test: Growth inhibition of Scenedesmus acutus assessed as changes in packed cell volume; format: functional, organism-based
Scenedesmus acutus [4] = test: Peroxidizing phytotoxicity against Scenedesmus acutus assessed as ethane production after 20 hr; format: functional, organism-based

Row | SMILES | IC50 [1] [nM] | IC50 (Scenedesmus acutus [2]) [nM] | IC50 (Scenedesmus acutus [3]) [nM] | IC50 (Scenedesmus acutus [4]) [nM]
1 | COC(=O)c1cc(Oc2ccc(C(F)(F)F)cc2Cl)ccc1[N+](=O)[O-] [ACIFLUORFEN-METHYL] | 2.19 | 61.7 | 70.8 | 23.4
2 | C#CCOc1cc(N2C(=O)C3=C(CCCC3)C2=O)ccc1Cl | – | 79.4 | 100 | 537
3 | CC(C)OC(=O)c1cc(N2C(=O)C3=C(CCCC3)C2=O)ccc1Cl | – | 1000 | 1230 | 182
4 | CCCCCOC(=O)c1cc(N2C(=O)C3=C(CCCC3)C2=O)ccc1Cl | 7.59 | 9330 | 4470 | 5370
5 | CCCCOC(=O)c1cc(N2C(=O)C3=C(CCCC3)C2=O)ccc1Cl | 9.12 | 3550 | 6310 | 7760
6 | CCCCCCCCOC(=O)c1cc(N2C(=O)C3=C(CCCC3)C2=O)ccc1Cl | 25.1 | > 100000 | > 100000 | > 100000
7 | CC(C)(C)OC(=O)c1cc(N2C(=O)C3=C(CCCC3)C2=O)ccc1Cl | 28.2 | 12900 | 81300 | > 100000
8 | CC(C)COC(=O)c1cc(N2C(=O)C3=C(CCCC3)C2=O)ccc1Cl | 4.79 | 759 | 977 | 15500
9 | O=C(O)c1cc(Oc2ccc(C(F)(F)F)cc2Cl)ccc1[N+](=O)[O-] [ACIFLUORFEN] | 200 | 1860 | 5750 | 1020
10 | CCC(C)OC(=O)c1cc(N2C(=O)C3=C(CCCC3)C2=O)ccc1Cl (configuration not stated) | 2.51 | 794 | 1100 | 9770
11 | O=C1C2=C(CCCC2)C(=O)N1c1ccc(Cl)cc1 [CHLOROPHTHALIUM] | – | 79.4 | 100 | 912
12 | CCCOC(=O)c1cc(N2C(=O)C3=C(CCCC3)C2=O)ccc1Cl | 2.19 | 1860 | 1120 | 661

The next lines start with results.

Row | IC50 [1] [nM] | SMILES | IC50 (Scenedesmus acutus [2]) [nM] | IC50 (Scenedesmus acutus [3]) [nM] | IC50 (Scenedesmus acutus [4]) [nM]
13 | 380 | O=C(O)c1cc(N2C(=O)C3=C(CCCC3)C2=O)c(F)cc1Cl | 759 | 1000 | 3160
14 | 3.72 | O=C1C2=C(CCCC2)C(=O)N1c1ccc(Cl)cc1F | 24.5 | 37.2 | 240
15 | 3.72 | CCOC(=O)c1cc(N2C(=O)C3=C(CCCC3)C2=O)ccc1Cl | 1380 | 1910 | 2140
16 | 8.91 | COC(=O)c1cc(N2C(=O)C3=C(CCCC3)C2=O)ccc1Cl | 2000 | 1780 | 1620
17 | 8.91 | CCCCOC(=O)c1cc(N2C(=O)C3=C(CCCC3)C2=O)c(F)cc1Cl | 67.6 | 126 | 141
18 | 2.63 | CCC(C)OC(=O)c1cc(N2C(=O)C3=C(CCCC3)C2=O)c(F)cc1Cl (configuration not stated) | 24.5 | 60.3 | 74.1
19 | 11.2 | COC(=O)c1cc(N2C(=O)C3=C(CCCC3)C2=O)c(F)cc1Cl | 110 | 67.6 | 170
20 | 4.9 | CC(C)COC(=O)c1cc(N2C(=O)C3=C(CCCC3)C2=O)c(F)cc1Cl | 33.1 | 100 | 407
21 | 1.38 | CC(C)OC(=O)c1cc(N2C(=O)C3=C(CCCC3)C2=O)c(F)cc1Cl | 57.5 | 13.8 | 89.1
22 | 3.89 | CCCOC(=O)c1cc(N2C(=O)C3=C(CCCC3)C2=O)c(F)cc1Cl | 89.1 | 33.1 | 66.1
23 | 1.82 | C#CCOc1cc(N2C(=O)C3=C(CCCC3)C2=O)c(F)cc1Cl | 15.8 | 15.8 | 141
24 | 1860 | O=C(O)c1cc(N2C(=O)C3=C(CCCC3)C2=O)ccc1Cl | > 100000 | > 100000 | > 100000
25 | 4.17 | CCOC(=O)c1cc(N2C(=O)C3=C(CCCC3)C2=O)c(F)cc1Cl | 100 | 57.5 | 87.1
